From ChEMBL document CHEMBL3885881, “DrugMatrix”

Organism: Rattus norvegicus
Test: DrugMatrix - Regimen: Daily Repeat
Type: toxicity, organism-based, Sprague-Dawley
Design: regimen Daily Repeat, gender Male, age 6-8 weeks
Details: in vivo, po, route oral GAVAGE, vehicle .5 % CMC; for ABSOLUTE BASOPHIL / ABSOLUTE EOSINOPHIL / ABSOLUTE LYMPHOCYTE / ABSOLUTE MONOCYTE / ABSOLUTE SEGMENTED NEUTROPHIL / BASOPHIL / EOSINOPHIL / ERYTHROCYTE COUNT / HEMATOCRIT / HEMOGLOBIN / LEUKOCYTE COUNT / LYMPHOCYTE / MEAN CORPUSCULAR HEMOGLOBIN / MEAN CORPUSCULAR HEMOGLOBIN CONCENTRATION / MEAN CORPUSCULAR VOLUME / MONOCYTE / NEUTROPHIL / NUCLEATED RED BLOOD CELLS / PLATELET COUNT: tissue Blood; for ALANINE AMINOTRANSFERASE / ALBUMIN / ALKALINE PHOSPHATASE / ASPARTATE AMINOTRANSFERASE / BLOOD UREA NITROGEN / CARBON DIOXIDE / CHLORIDE / CHOLESTEROL / CREATINE PHOSPHOKINASE / CREATININE / GLUCOSE / LACTATE DEHYDROGENASE / LIPASE / PHOSPHORUS / POTASSIUM / SODIUM / TOTAL BILIRUBIN / TOTAL PROTEIN / URIC ACID: tissue Plasma
[1] = 10 mg/kg, 72 h, dose level Low, time 3 day
[2] = 10 mg/kg, 120 h, dose level Low, time 5 day
[3] = 310 mg/kg, 72 h, dose level High, time 3 day
[4] = 310 mg/kg, 120 h, dose level High, time 5 day

## O=C1CN=C(c2ccccc2)c2cc([N+](=O)[O-])ccc2N1 [NITRAZEPAM]
[1]
  ABSOLUTE BASOPHIL: 0 CELLS/uL
  ABSOLUTE EOSINOPHIL: 19 CELLS/uL
  ABSOLUTE LYMPHOCYTE: 6878.67 CELLS/uL
  ABSOLUTE MONOCYTE: 19 CELLS/uL
  ABSOLUTE SEGMENTED NEUTROPHIL: 750 CELLS/uL
  BASOPHIL: 0%
  EOSINOPHIL: 0.33%
  ERYTHROCYTE COUNT: 5.13 x10E6/uL
  HEMATOCRIT: 31.73%
  HEMOGLOBIN: 12.93 G/DL
  LEUKOCYTE COUNT: 7.67 x10E3/uL
  LYMPHOCYTE: 90.33%
  MEAN CORPUSCULAR HEMOGLOBIN: 25.23 pg
  MEAN CORPUSCULAR HEMOGLOBIN CONCENTRATION: 40.73 G/DL
  MEAN CORPUSCULAR VOLUME: 61.9 fL
  MONOCYTE: 0.33%
  NEUTROPHIL: 9%
  NUCLEATED RED BLOOD CELLS: 0 /100WBC
  PLATELET COUNT: 847 x10E3/uL
  ALANINE AMINOTRANSFERASE: 48.67 u/L
  ALBUMIN: 4.23 G/DL
  ALKALINE PHOSPHATASE: 424.33 u/L
  ASPARTATE AMINOTRANSFERASE: 76.67 u/L
  BLOOD UREA NITROGEN: 15 mg/dL
  CARBON DIOXIDE: 31 mmol/L
  CHLORIDE: 103 MEQ/L
  CHOLESTEROL: 76.67 mg/dL
  CREATINE PHOSPHOKINASE: 169 u/L
  CREATININE: 0.18 mg/dL
  GLUCOSE: 141.67 mg/dL
  LACTATE DEHYDROGENASE: 124.67 u/L
  LIPASE: 10 u/L
  PHOSPHORUS: 10.73 mg/dL
  POTASSIUM: 5.83 MEQ/L
  SODIUM: 149.6 MEQ/L
  TOTAL BILIRUBIN: 0.2 mg/dL
  TOTAL PROTEIN: 5.43 G/DL
  URIC ACID: 0.9 mg/dL
[2]
  ABSOLUTE BASOPHIL: 0 CELLS/uL
  ABSOLUTE EOSINOPHIL: 0 CELLS/uL
  ABSOLUTE LYMPHOCYTE: 11358.67 CELLS/uL
  ABSOLUTE MONOCYTE: 0 CELLS/uL
  ABSOLUTE SEGMENTED NEUTROPHIL: 1008 CELLS/uL
  BASOPHIL: 0%
  EOSINOPHIL: 0%
  ERYTHROCYTE COUNT: 5.81 x10E6/uL
  HEMATOCRIT: 35.47%
  HEMOGLOBIN: 13.93 G/DL
  LEUKOCYTE COUNT: 12.37 x10E3/uL
  LYMPHOCYTE: 92%
  MEAN CORPUSCULAR HEMOGLOBIN: 24.07 pg
  MEAN CORPUSCULAR HEMOGLOBIN CONCENTRATION: 39.33 G/DL
  MEAN CORPUSCULAR VOLUME: 61.13 fL
  MONOCYTE: 0%
  NEUTROPHIL: 8%
  NUCLEATED RED BLOOD CELLS: 0 /100WBC
  PLATELET COUNT: 1206.67 x10E3/uL
  ALANINE AMINOTRANSFERASE: 43.67 u/L
  ALBUMIN: 4.43 G/DL
  ALKALINE PHOSPHATASE: 331.67 u/L
  ASPARTATE AMINOTRANSFERASE: 77.33 u/L
  BLOOD UREA NITROGEN: 18 mg/dL
  CARBON DIOXIDE: 26.67 mmol/L
  CHLORIDE: 102 MEQ/L
  CHOLESTEROL: 67.67 mg/dL
  CREATINE PHOSPHOKINASE: 186.67 u/L
  CREATININE: 0.2 mg/dL
  GLUCOSE: 147.33 mg/dL
  LACTATE DEHYDROGENASE: 109.33 u/L
  LIPASE: 9.33 u/L
  PHOSPHORUS: 13.13 mg/dL
  POTASSIUM: 6.92 MEQ/L
  SODIUM: 147.33 MEQ/L
  TOTAL BILIRUBIN: 0.23 mg/dL
  TOTAL PROTEIN: 6.4 G/DL
  URIC ACID: 2.13 mg/dL
[3]
  ABSOLUTE BASOPHIL: 0 CELLS/uL
  ABSOLUTE EOSINOPHIL: 0 CELLS/uL
  ABSOLUTE LYMPHOCYTE: 11568.33 CELLS/uL
  ABSOLUTE MONOCYTE: 226.67 CELLS/uL
  ABSOLUTE SEGMENTED NEUTROPHIL: 871.67 CELLS/uL
  BASOPHIL: 0%
  EOSINOPHIL: 0%
  ERYTHROCYTE COUNT: 5.41 x10E6/uL
  HEMATOCRIT: 34%
  HEMOGLOBIN: 13.63 G/DL
  LEUKOCYTE COUNT: 12.67 x10E3/uL
  LYMPHOCYTE: 90.67%
  MEAN CORPUSCULAR HEMOGLOBIN: 25.23 pg
  MEAN CORPUSCULAR HEMOGLOBIN CONCENTRATION: 40.1 G/DL
  MEAN CORPUSCULAR VOLUME: 62.87 fL
  MONOCYTE: 1.67%
  NEUTROPHIL: 7.67%
  NUCLEATED RED BLOOD CELLS: 0 /100WBC
  PLATELET COUNT: 1116 x10E3/uL
  ALANINE AMINOTRANSFERASE: 48 u/L
  ALBUMIN: 4.03 G/DL
  ALKALINE PHOSPHATASE: 270 u/L
  ASPARTATE AMINOTRANSFERASE: 93.33 u/L
  BLOOD UREA NITROGEN: 15.67 mg/dL
  CARBON DIOXIDE: 27.67 mmol/L
  CHLORIDE: 100 MEQ/L
  CHOLESTEROL: 88.67 mg/dL
  CREATINE PHOSPHOKINASE: 222.67 u/L
  CREATININE: 0.17 mg/dL
  GLUCOSE: 150.33 mg/dL
  LACTATE DEHYDROGENASE: 150.67 u/L
  LIPASE: 8 u/L
  PHOSPHORUS: 11.93 mg/dL
  POTASSIUM: 6.17 MEQ/L
  SODIUM: 143.67 MEQ/L
  TOTAL BILIRUBIN: 0.2 mg/dL
  TOTAL PROTEIN: 5.7 G/DL
  URIC ACID: 1.3 mg/dL
[4]
  ABSOLUTE BASOPHIL: 0 CELLS/uL
  ABSOLUTE EOSINOPHIL: 37.33 CELLS/uL
  ABSOLUTE LYMPHOCYTE: 8871.33 CELLS/uL
  ABSOLUTE MONOCYTE: 96.67 CELLS/uL
  ABSOLUTE SEGMENTED NEUTROPHIL: 1228 CELLS/uL
  BASOPHIL: 0%
  EOSINOPHIL: 0.33%
  ERYTHROCYTE COUNT: 6.24 x10E6/uL
  HEMATOCRIT: 37.73%
  HEMOGLOBIN: 14.83 G/DL
  LEUKOCYTE COUNT: 10.23 x10E3/uL
  LYMPHOCYTE: 86.67%
  MEAN CORPUSCULAR HEMOGLOBIN: 23.77 pg
  MEAN CORPUSCULAR HEMOGLOBIN CONCENTRATION: 39.33 G/DL
  MEAN CORPUSCULAR VOLUME: 60.47 fL
  MONOCYTE: 1%
  NEUTROPHIL: 12%
  NUCLEATED RED BLOOD CELLS: 0 /100WBC
  PLATELET COUNT: 1180.33 x10E3/uL
  ALANINE AMINOTRANSFERASE: 39.67 u/L
  ALBUMIN: 4.13 G/DL
  ALKALINE PHOSPHATASE: 195.33 u/L
  ASPARTATE AMINOTRANSFERASE: 76.33 u/L
  BLOOD UREA NITROGEN: 17.33 mg/dL
  CARBON DIOXIDE: 26.33 mmol/L
  CHLORIDE: 104 MEQ/L
  CHOLESTEROL: 87.67 mg/dL
  CREATINE PHOSPHOKINASE: 160 u/L
  CREATININE: 0.19 mg/dL
  GLUCOSE: 148.67 mg/dL
  LACTATE DEHYDROGENASE: 101 u/L
  LIPASE: 40.67 u/L
  PHOSPHORUS: 9.83 mg/dL
  POTASSIUM: 6.59 MEQ/L
  SODIUM: 145.77 MEQ/L
  TOTAL BILIRUBIN: 0.13 mg/dL
  TOTAL PROTEIN: 6 G/DL
  URIC ACID: 1.17 mg/dL
